Assay results taken from ChEMBL document CHEMBL1201862, “PubChem BioAssay data set” (2004).
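Grown in 96-well plates, cells were treated for 48 hours with each compound at five concentrations. Insufficient inhibition: endpoint recorded as highest concentration tested. GI50 is the concentration that inhibits growth by half.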 Activity calls are given as the source filed them. No stated cut-off is given here; in the data, active = GI50 up to about 1.1 µM and inactive = higher.

Assays:
Assay in all cases: growth of human tumour cells (NCI), 48 h
OVCAR-8 = tested on: OVCAR-8
A498 = tested on: A498
DMS-114 = tested on: DMS-114
A549 = tested on: A549
Malme-3M = tested on: Malme-3M
SK-MEL-5 = tested on: SK-MEL-5
SN12C = tested on: SN12C
OVCAR-3 = tested on: OVCAR-3
KM12 = tested on: KM12
OVCAR-5 = tested on: OVCAR-5
IGROV-1 = tested on: IGROV-1
ACHN = tested on: ACHN
M19-MEL = tested on: M19-MEL
SF-268 = tested on: SF-268
HOP-18 = tested on: HOP-18
U-251 = tested on: U-251
HCT-116 = tested on: HCT-116
SNB-75 = tested on: SNB-75
CAKI-1 = tested on: CAKI-1
SK-OV-3 = tested on: SK-OV-3
TK-10 = tested on: TK-10
DMS-273 = tested on: DMS-273
786-0 = tested on: 786-0
SK-MEL-2 = tested on: SK-MEL-2
HL-60 = tested on: HL-60
NCI-H226 = tested on: NCI-H226
EKVX = tested on: EKVX
HT-29 = tested on: HT-29
UO-31 = tested on: UO-31
SF-295 = tested on: SF-295
NCI-H460 = tested on: NCI-H460
UACC-257 = tested on: UACC-257
LOX IMVI = tested on: LOX IMVI
OVCAR-4 = tested on: OVCAR-4
HOP-62 = tested on: HOP-62
CCRF-CEM = tested on: CCRF-CEM
LXFL 529 = tested on: LXFL 529
NCI-H522 = tested on: NCI-H522
HCT-15 = tested on: HCT-15
SF-539 = tested on: SF-539
MOLT-4 = tested on: MOLT-4
SNB-19 = tested on: SNB-19
SK-MEL-28 = tested on: SK-MEL-28
HOP-92 = tested on: HOP-92
RXF 393 = tested on: RXF 393
COLO 205 = tested on: COLO 205
M14 = tested on: M14
K562 = tested on: K562
DLD-1 = tested on: DLD-1
RPMI-8226 = tested on: RPMI-8226
NCI-H23 = tested on: NCI-H23
UACC-62 = tested on: UACC-62
SW-620 = tested on: SW-620
XF498 = tested on: XF498
SNB-78 = tested on: SNB-78
KM-20L2 = tested on: KM-20L2

## O=c1[nH]c(Br)nc2c(N3CCCCC3)c[nH]c12
OVCAR-8
  GI50: > 100 µM (inactive)
A498
  GI50: > 100 µM (inactive)
DMS-114
  GI50: > 100 µM (inactive)
A549
  GI50: > 100 µM (inactive)
Malme-3M
  GI50: > 100 µM (inactive)
SK-MEL-5
  GI50: > 100 µM (inactive)
SN12C
  GI50: > 100 µM (inactive)
OVCAR-3
  GI50: > 100 µM (inactive)
KM12
  GI50: > 100 µM (inactive)
OVCAR-5
  GI50: > 100 µM (inactive)
IGROV-1
  GI50: > 100 µM (inactive)
ACHN
  GI50: > 100 µM (inactive)
M19-MEL
  GI50: > 100 µM (inactive)
SF-268
  GI50: > 100 µM (inactive)
HOP-18
  GI50: > 100 µM (inactive)
U-251
  GI50: > 100 µM (inactive)
HCT-116
  GI50: > 100 µM (inactive)
SNB-75
  GI50: > 100 µM (inactive)
CAKI-1
  GI50: > 100 µM (inactive)
SK-OV-3
  GI50: > 100 µM (inactive)
TK-10
  GI50: > 100 µM (inactive)
DMS-273
  GI50: > 100 µM (inactive)
786-0
  GI50: > 100 µM (inactive)
SK-MEL-2
  GI50: > 100 µM (inactive)
HL-60
  GI50: > 100 µM (inactive)
NCI-H226
  GI50: > 100 µM (inactive)
EKVX
  GI50: > 100 µM (inactive)
HT-29
  GI50: > 100 µM (inactive)
UO-31
  GI50: > 100 µM (inactive)
SF-295
  GI50: > 100 µM (inactive)
NCI-H460
  GI50: > 100 µM (inactive)
UACC-257
  GI50: > 100 µM (inactive)
LOX IMVI
  GI50: > 100 µM (inactive)
OVCAR-4
  GI50: > 100 µM (inactive)
HOP-62
  GI50: > 100 µM (inactive)
CCRF-CEM
  GI50: > 100 µM (inactive)
LXFL 529
  GI50: > 100 µM (inactive)
NCI-H522
  GI50: 28.3 µM (inactive)
HCT-15
  GI50: > 100 µM
SF-539
  GI50: > 100 µM (inactive)
MOLT-4
  GI50: 29.5 µM (inactive)
SNB-19
  GI50: > 100 µM (inactive)
SK-MEL-28
  GI50: > 100 µM (inactive)
HOP-92
  GI50: > 100 µM (inactive)
RXF 393
  GI50: > 100 µM (inactive)
COLO 205
  GI50: > 100 µM (inactive)
M14
  GI50: > 100 µM (inactive)
K562
  GI50: > 100 µM (inactive)
DLD-1
  GI50: > 100 µM (inactive)
RPMI-8226
  GI50: > 100 µM (inactive)
NCI-H23
  GI50: > 100 µM (inactive)
UACC-62
  GI50: > 100 µM (inactive)
SW-620
  GI50: > 100 µM (inactive)
XF498
  GI50: > 100 µM (inactive)
SNB-78
  GI50: > 100 µM (inactive)
KM-20L2
  GI50: > 100 µM (inactive)

## C=CCNC(=O)N(CCCC(NC(C)=O)C(=O)NCc1ccccc1)Cc1ccccc1 (centres undefined)
OVCAR-8
  GI50: > 100 µM (inactive)
A498
  GI50: > 100 µM (inactive)
DMS-114
  GI50: > 100 µM (inactive)
A549
  GI50: > 100 µM (inactive)
Malme-3M
  GI50: > 100 µM (inactive)
SK-MEL-5
  GI50: > 100 µM (inactive)
SN12C
  GI50: > 100 µM (inactive)
OVCAR-3
  GI50: > 100 µM (inactive)
KM12
  GI50: > 100 µM (inactive)
OVCAR-5
  GI50: > 100 µM (inactive)
IGROV-1
  GI50: > 100 µM (inactive)
ACHN
  GI50: > 100 µM (inactive)
M19-MEL
  GI50: > 100 µM (inactive)
SF-268
  GI50: > 100 µM (inactive)
HOP-18
  GI50: > 100 µM (inactive)
U-251
  GI50: > 100 µM (inactive)
SNB-75
  GI50: > 100 µM (inactive)
CAKI-1
  GI50: > 100 µM (inactive)
SK-OV-3
  GI50: > 100 µM (inactive)
TK-10
  GI50: > 100 µM (inactive)
DMS-273
  GI50: > 100 µM (inactive)
786-0
  GI50: > 100 µM (inactive)
SK-MEL-2
  GI50: > 100 µM (inactive)
HL-60
  GI50: > 100 µM (inactive)
NCI-H226
  GI50: > 100 µM (inactive)
EKVX
  GI50: > 100 µM (inactive)
HT-29
  GI50: > 100 µM (inactive)
UO-31
  GI50: > 100 µM (inactive)
SF-295
  GI50: > 100 µM (inactive)
NCI-H460
  GI50: > 100 µM (inactive)
UACC-257
  GI50: > 100 µM (inactive)
LOX IMVI
  GI50: > 100 µM (inactive)
OVCAR-4
  GI50: > 100 µM (inactive)
HOP-62
  GI50: > 100 µM (inactive)
CCRF-CEM
  GI50: > 100 µM (inactive)
LXFL 529
  GI50: > 100 µM (inactive)
NCI-H522
  GI50: > 100 µM (inactive)
HCT-15
  GI50: > 100 µM
SF-539
  GI50: > 100 µM (inactive)
MOLT-4
  GI50: > 100 µM (inactive)
SNB-19
  GI50: > 100 µM (inactive)
SK-MEL-28
  GI50: > 100 µM (inactive)
HOP-92
  GI50: 83 µM (inactive)
RXF 393
  GI50: > 100 µM (inactive)
COLO 205
  GI50: > 100 µM (inactive)
M14
  GI50: > 100 µM (inactive)
K562
  GI50: > 100 µM (inactive)
RPMI-8226
  GI50: > 100 µM (inactive)
NCI-H23
  GI50: > 100 µM (inactive)
UACC-62
  GI50: > 100 µM (inactive)
SW-620
  GI50: > 100 µM (inactive)
XF498
  GI50: > 100 µM (inactive)
KM-20L2
  GI50: > 100 µM (inactive)
